Data from publication PMC8188212, “Multi‐Arm PEG/Peptidomimetic Conjugate Inhibitors of DR6/APP Interaction Block Hematogenous Tumor Cell Extravasation” (Advanced Science, 2021).
Entries after “also recorded” stand apart in the source; their conditions may differ. Square brackets hold non-standard residues; d marks the D form. Side chains are listed from the residue outwards. Ends that are not written are not given here. maleimide = maleimide: 4-arm PEG5k maleimide reacting with the C-terminal Cys thiol

System: HUVECs
Assay: Co-culture of TCs and HUVECs, TC-induced HUVECs necroptosis
Assay type: cell-based, human
Conditions: co-culture with GFP-B16F10, GFP-SGC-996, GFP-LLC1 for 24 h; peptides 1 × 10^–6 M; Hoechst 33342/EthD-III staining; n = 3
Experimental: For co‐culture experiment, HUVECs (1 × 10^5) were cultured for 24 h in six‐well plates and 5 × 10^4 GFP‐expressing TCs (GFP‐B16F10, GFP‐SGC‐996, and GFP‐LLC1) were added alone or in the presence of the indicated substances onto the HUVECs monolayer and cultured for 24 h: peptides (1 × 10^–6 M), Nec‐1 (30 × 10^–6 M), and zVAD (100 × 10^–6 M). Then, cells were stained with Hoechst 33342 and EthD‐III, and observed by fluorescence microscope. Cell number was determined by counting Hoechst‐33342‐positive cells, and cell death was determined by counting EthD‐III‐positive nuclei.^[ ^9 ^]

PEG-tAHP-DRI: tetra-(D-retro-inverso isomer of AHP-12) substitued 4-arm PEG5k ([dP][dT][dT][dA][dD][dI][dT]C([maleimide-4‑arm PEG5k]); also: four peptides on one 4-arm PEG5k)
inhibition of TCs-induced HUVECs necroptosis: strongest potent inhibitory effect on HUVECs necroptosis; also recorded: much less amount of necroptotic HUVECs
